According to ChEMBL document CHEMBL4043214, “Design, synthesis, and SAR study of 3-(benzo[d][1,3]dioxol-5-yl)-N-benzylpropanamide as novel potent synergists against fluconazole-resistant Candida albicans” (2017):

Key:
Type in all cases: functional
Candida albicans [1] = test: Potentiation of fluconazole-induced anti-fungal activity against fluconazole-resistant Candida albicans isolate 103 by two-fold dilution method
Candida albicans [2] = test: Anti-fungal activity against fluconazole-resistant Candida albicans isolate 103 by microbroth dilution method
Candida albicans [3] = test: Potentiation of fluconazole-induced anti-fungal activity against fluconazole-resistant Candida albicans isolate 100 at 1 ug/ml by checkerboard microdilution assay
Candida albicans [4] = test: Potentiation of fluconazole-induced anti-fungal activity against fluconazole-resistant Candida albicans isolate 103 at 8 ug/ml by checkerboard microdilution assay
Candida albicans [5] = test: Potentiation of fluconazole-induced anti-fungal activity against fluconazole-resistant Candida albicans isolate 103 at 1 ug/ml by checkerboard microdilution assay
Candida albicans [6] = test: Potentiation of fluconazole-induced anti-fungal activity against fluconazole-resistant Candida albicans isolate 103 assessed as fluconazole MIC80 at 4 ug/ml by checkerboard microdilution assay
Candida albicans [7] = test: Potentiation of fluconazole-induced anti-fungal activity against fluconazole-resistant Candida albicans isolate 100 by two-fold dilution method
Candida albicans [8] = test: Potentiation of fluconazole-induced anti-fungal activity against fluconazole-resistant Candida albicans isolate 103 at 4 ug/ml by checkerboard microdilution assay
Candida albicans [9] = test: Potentiation of fluconazole-induced anti-fungal activity against fluconazole-resistant Candida albicans isolate 100 at 4 ug/ml by checkerboard microdilution assay
Candida albicans [10] = test: Potentiation of fluconazole-induced anti-fungal activity against fluconazole-resistant Candida albicans isolate 100 assessed as fluconazole MIC80 at 4 ug/ml by checkerboard microdilution assay
Candida albicans [11] = test: Potentiation of fluconazole-induced anti-fungal activity against fluconazole-resistant Candida albicans isolate 100 assessed as fluconazole MIC80 at 8 ug/ml by checkerboard microdilution assay
Candida albicans [12] = test: Potentiation of fluconazole-induced anti-fungal activity against fluconazole-resistant Candida albicans isolate 100 assessed as fluconazole MIC80 at 1 ug/ml by checkerboard microdilution assay
Candida albicans [13] = test: Potentiation of fluconazole-induced anti-fungal activity against fluconazole-resistant Candida albicans isolate 103 assessed as fluconazole MIC80 at 1 ug/ml by checkerboard microdilution assay
Candida albicans [14] = test: Potentiation of fluconazole-induced anti-fungal activity against fluconazole-resistant Candida albicans isolate 103 assessed as fluconazole MIC80 at 2 ug/ml by checkerboard microdilution assay
Candida albicans [15] = test: Synergistic anti-fungal activity against fluconazole-resistant Candida albicans isolate 100 in presence of fluconazole by two-fold dilution method
Candida albicans [16] = test: Potentiation of fluconazole-induced anti-fungal activity against fluconazole-resistant Candida albicans isolate 100 at 2 ug/ml by checkerboard microdilution assay
Candida albicans [17] = test: Potentiation of fluconazole-induced anti-fungal activity against fluconazole-resistant Candida albicans isolate 100 assessed as fluconazole MIC80 at 2 ug/ml by checkerboard microdilution assay
Candida albicans [18] = test: Potentiation of fluconazole-induced anti-fungal activity against fluconazole-resistant Candida albicans isolate 103 assessed as fluconazole MIC80 at 8 ug/ml by checkerboard microdilution assay
Candida albicans [19] = test: Anti-fungal activity against fluconazole-resistant Candida albicans isolate 100 by microbroth dilution method
Candida albicans [20] = test: Synergistic anti-fungal activity against fluconazole-resistant Candida albicans isolate 103 in presence of fluconazole by two-fold dilution method
Candida albicans [21] = test: Potentiation of fluconazole-induced anti-fungal activity against fluconazole-resistant Candida albicans isolate 100 at 8 ug/ml by checkerboard microdilution assay
Candida albicans [22] = test: Potentiation of fluconazole-induced anti-fungal activity against fluconazole-resistant Candida albicans isolate 103 at 2 ug/ml by checkerboard microdilution assay

## O=C(CCc1ccc2c(c1)OCO2)NCc1ccc(-c2ccccc2F)cc1
Candida albicans [1]
  fractional inhibitory concentration index (FICI): 0.063
Candida albicans [2]
  MIC80: > 64 mg/L
Candida albicans [3]
  fractional inhibitory concentration index (FICI): 0.009
Candida albicans [4]
  fractional inhibitory concentration index (FICI): 0.066
Candida albicans [5]
  fractional inhibitory concentration index (FICI): 0.01
Candida albicans [6]
  MIC80: 0.063 mg/L
Candida albicans [7]
  fractional inhibitory concentration index (FICI): 0.063
Candida albicans [8]
  fractional inhibitory concentration index (FICI): 0.032
Candida albicans [9]
  fractional inhibitory concentration index (FICI): 0.032
Candida albicans [10]
  MIC80: 0.63 mg/L
Candida albicans [11]
  MIC80: 0.031 mg/L
Candida albicans [12]
  MIC80: 0.125 mg/L
Candida albicans [13]
  MIC80: 0.25 mg/L
Candida albicans [14]
  MIC80: 0.125 mg/L
Candida albicans [15]
  MIC80: 0.031 mg/L
Candida albicans [16]
  fractional inhibitory concentration index (FICI): 0.017
Candida albicans [17]
  MIC80: 0.125 mg/L
Candida albicans [18]
  MIC80: 0.031 mg/L
Candida albicans [19]
  MIC80: > 64 mg/L
Candida albicans [20]
  MIC80: 0.031 mg/L
Candida albicans [21]
  fractional inhibitory concentration index (FICI): 0.066
Candida albicans [22]
  fractional inhibitory concentration index (FICI): 0.017
